Reference: patent publication US8980951B2, “Sesquiterpenes for antifungal applications” (Kansas State University Research Foundation, priority 2011, dated 2015)
Values after ≈ are worked out from the molar mass of the structure shown.

Assays:
[1] = system: various fungi; assay: Fungal EC50 and selective index summary; type: cell-based; conditions: against various fungi; read-out: effective fungal concentration-50 (EC50)
Protocol: (§1) Yeast cells or conidia (for filamentous fungi) were suspended in RPMI 1640 (with 50 mM glucose) medium to a final concentration of 10^4 cfu/ml and distributed in a 96-well microplate to a total volume of 100 μl/well. Albicanol and drimenol were added into the wells and serial dilutions (broad or narrow range) with replicates were made, and wells with or without DMSO served as controls. Plates were incubated without shaking at 37° C. for 24-48 h for yeasts and 30° C. for 4 days for filamentous fungi (Aspergillus and Trichophyton sp). The MIC was defined as the lowest compound concentration at which no growth occurred, as determined visually and by OD600 measurement (or microscopically, inverted). As a positive control, amphotericin B (AMB) (1 μg/ml) was also included in parallel. Cytotoxicity of albicanol and drimenol was determined using human intestinal epithelial cell lines (Int-407) by utilizing cell viability assay kit of Promega.

[2] = system: Caenorhabditis elegans (worm); assay: Toxicity to worms in the Candidiasis model; type: in vivo; conditions: at concentrations that inhibit fungal growth
Protocol: (§2) In order to determine antifungal efficacy and toxicity of albicanol and drimenol simultaneously, Caenorhabditis elegans (worm), a non-mammalian host model of Candidiasis was used. Worms fed with C. albicans yeast cells were incubated in RPMI medium in the presence or absence of drimenol. After 4-5 days worms were scored for survival under an inverted microscope and images were recorded. […] Note dead worms (straight shapes) and clusters of fungal growth in wells without drimenol (−Dri).

[3] = system: dermatophyte fungi; assay: MIC summary for dermatophyte fungi; type: cell-based
Protocol: (§3) Synthetic pure albicanol and drimenol were dissolved in DMSO (10 mg/ml as stock solution) and used to determine their antifungal activities (minimum inhibitory concentration, MIC) against various fungi according to the microdilution assay of Clinical and Laboratory Standards Institute (CLSI (2008). Reference method for broth dilution antifungal susceptibility testing of yeasts and filamentous fungi: Approved Standard-Third Edition. Clinical and Laboratory Standards Institute 940 West Valley Road, Wayne, Pa. CLSI document M27-A3 & M38-A28. An initial assay had confirmed the antifungal activity of albicanol and drimenol; therefore, the susceptibility assay was extended to other pathogenic fungi including fluconazole resistant C. albicans, various species of candida, Cryptococcus, Aspergillus and a dermatophyte fungus.
(§4) Yeast cells or conidia (for filamentous fungi) were suspended in RPMI 1640 (with 50 mM glucose) medium to a final concentration of 10^4 cfu/ml and distributed in a 96-well microplate to a total volume of 100 μl/well. […] The MIC was defined as the lowest compound concentration at which no growth occurred, as determined visually and by OD600 measurement (or microscopically, inverted). […] Cytotoxicity of albicanol and drimenol was determined using human intestinal epithelial cell lines (Int-407) by utilizing cell viability assay kit of Promega.

[4] = system: C. albicans SC5314; assay: CLSI microdilution antifungal susceptibility assay; type: cell-based; conditions: for EC50 / MIC: Candida albicans; for EC50: 50% fungal inhibitory concentration; for MIC: lowest concentration with no fungal growth, CLSI
Protocol: as §3, §1

[5] = system: T. equinum; assay: CLSI microdilution antifungal susceptibility assay; type: cell-based; conditions: for EC50: 50% fungal inhibitory concentration; for MIC: lowest concentration with no fungal growth, CLSI
Protocol: as §3, §1

[6] = system: C. albicans Day 185; assay: CLSI microdilution antifungal susceptibility assay; type: cell-based; conditions: for EC50 / MIC: Candida albicans; for EC50: DAY185, 50% fungal inhibitory concentration; for MIC: DAY185, lowest concentration with no fungal growth, CLSI
Protocol: as §3, §1

[7] = system: Cryp. neoformans; assay: CLSI microdilution antifungal susceptibility assay; type: cell-based; conditions: for EC50 / MIC: Cryptococcus neoformans; for EC50: 50% fungal inhibitory concentration; for MIC: lowest concentration with no fungal growth, CLSI
Protocol: as §3, §1

[8] = Cytotoxicity, Promega's cell viability assay kit; type: cell-based; conditions: human, Int-407 intestinal epithelial cells; summary in description; read-out: cytotoxic inhibitory concentration (IC50) against Int. 407
Protocol: as §1

[9] = system: A. nidulans, C. albicans, C. albicans 95-158 Flu-R, Cryp. neomormans, Candida krusei, and C. glabrata; assay: Fungicidal test, viability of treated fungal cells spotted on YPD agar; type: cell-based; conditions: for effect of amines or YPD medium on bioactivity: presence of amines or YPD medium
[10] = system: fluconazole resistant C. alibcans, Cryptococcus sp. and Aspergillus sp.; assay: MIC summary for fungi; type: cell-based; conditions: Candida albicans, read-out: minimum inhibitory concentration (MIC)
Protocol: as §3, §4

[11] = system: C. albicans; assay: Caenorhabditis elegans host model of Candidiasis; type: in vivo; conditions: 50 μg/ml; RPMI medium; scored after 4-5 days
Protocol: as §2

[12] = system: barcoded mutants of Saccharomyces cerevisiae; assay: Genome-wide fitness (haploinsufficiency) profiling, yeast TAG4 microarray; type: cell-based; conditions: at 20% growth inhibitory concentration; 20 generations

C=C1CC[C@H]2C(C)(C)CCC[C@]2(C)[C@H]1CO [Albicanol, (+)-albicanol]
EC50 [1]: 5 to 30 µg/mL (≈ 22.5 to 135 µM) | cytotoxicity to worms [2]: less or no cytotoxicity to worms | MIC [3]: 5 to 15 µg/mL (≈ 22.5 to 67.5 µM) | Selective Index (Int-407 IC50/fungal EC50) [4]: 2 | EC50 [4]: 25 µg/mL (≈ 112 µM) | MIC [4]: 50 µg/mL (≈ 225 µM) | Selective Index (Int-407 IC50/fungal EC50) [5]: 6.25 (6.25) | EC50 [5]: 8 µg/mL (≈ 36 µM) | MIC [5]: 15 µg/mL (≈ 67.5 µM) | Selective Index (Int-407 IC50/fungal EC50) [6]: 2.27 | EC50 [6]: 22 µg/mL (≈ 98.9 µM) | MIC [6]: 40 µg/mL (≈ 180 µM) | Selective Index (Int-407 IC50/fungal EC50) [7]: 2.27 | EC50 [7]: 22 µg/mL (≈ 98.9 µM) | MIC [7]: 40 µg/mL (≈ 180 µM) | CC50 [8]: ~50 µg/mL (≈ 225 µM) | effect of amines or YPD medium on bioactivity [9]: not affected | MIC [10]: 25 to 50 µg/mL (≈ 112 to 225 µM)

CC1=CC[C@H]2C(C)(C)CCC[C@]2(C)[C@H]1CO [drimenol, (−)-drimenol]
EC50 [1]: 5 to 30 µg/mL (≈ 22.5 to 135 µM) | cytotoxicity to worms [2]: less or no cytotoxicity to worms | MIC [3]: 5 to 15 µg/mL (≈ 22.5 to 67.5 µM) | protection of worms from C. albicans mediated death [11]: prevented C. albicans growth and protected worms from C. albicans mediated death | Selective Index (Int-407 IC50/fungal EC50) [4]: 2.27 | EC50 [4]: 22 µg/mL (≈ 98.9 µM) | MIC [4]: 40 µg/mL (≈ 180 µM) | Selective Index (Int-407 IC50/fungal EC50) [5]: 6.25 (6.25) | EC50 [5]: 8 µg/mL (≈ 36 µM) | MIC [5]: 5 µg/mL (≈ 22.5 µM) | Selective Index (Int-407 IC50/fungal EC50) [6]: 4.16 | EC50 [6]: 12 µg/mL (≈ 54 µM) | MIC [6]: 25 µg/mL (≈ 112 µM) | Selective Index (Int-407 IC50/fungal EC50) [7]: 3.12 | EC50 [7]: 16 µg/mL (≈ 72 µM) | MIC [7]: 30 µg/mL (≈ 135 µM) | CC50 [8]: ~50 µg/mL (≈ 225 µM) | MFC ([9]; all the fungi tested, 100 μg/ml for 48 h, read-out: minimum fungicidal concentration, MFC): 100 µg/mL (≈ 450 µM) | effect of amines or YPD medium on bioactivity [9]: not affected | strains/genes depleted at the log ratio of >1.5 [12]: 34 | MIC [10]: 25 to 50 µg/mL (≈ 112 to 225 µM)
